Source: patent US20080207766A1, “METHODS AND COMPOSITIONS FOR TREATING AT LEAST ONE UPPER GASTROINTESTINAL SYMPTOM” (AGI Therapeutics Research Ltd., priority 2007, published 2008)
Structures can show the parent of a compound that is named as a salt.

Legend:
[1] = Pharmacokinetics of oral conventional formulation in adults (Young et al.); type: in vivo, human
Method: Bear et al., Am. J. Physiol., 186, 180-86 (1956). […] Young et al., Clinical Therapeutics, 23(4) (2001). […] The typical dose used for treating hypertensive subjects is about 25 mg/day, and is dosed using conventional formulations.

[2] = test system: patients with functional diarrhea; assay: Clinical study, randomized double-blind placebo-controlled forced dose escalation, 12 weeks; type: in vivo, human
Excerpt: While functional diarrhea is a condition dominated by altered lower bowel function associated with chronic diarrhea, it is also associated with upper gastrointestinal related symptoms such as nausea. For instance, patients suffering from similar lower bowel functional conditions such as IBS ([…]) have a reported incidence of nausea of 32%-other conditions also have relatively high baseline incidences of nausea, i.e., functional dyspepsia 39%, oesophagitis 17%, duodenal ulcer 34%, gastric ulcer 39%, gallstone disease 28%, alcohol related dyspepsia 37%, and gastric cancer 48%. […], ABC of the Upper Gastrointestinal Tract Anorexia, Nausea, Vomiting and Pain, 323 BMJ (8 Dec. 2001). […] Eighty-two patients (both male and female) meeting ROME II criteria (modified) for Functional Diarrhea were randomized in the study. Using an intent-to-treat analysis and the entire 12 weeks of dose-escalation therapy, the incidence of nausea in the placebo group was 20%, indicating a relatively high baseline of nausea for that condition.

[3] = cited from earlier work
[4] = expected from Young et al. data, conventional formulation
[5] = 2.5 mg dose, conventional formulation, adults
[6] = 7.5 mg dose, conventional formulation, adults

SMILES | expected peak plasma concentration ([1]; about 25 mg/day dose for hypertensive subjects, conventional formulations) | 24 hour plasma concentration level as share of peak plasma concentration [1, 4] | time for which about 50% of the peak plasma concentration is maintained [1, 4] | changes in blood pressure ([2]; FIGS. 1 and 2, over the course of the study) | incidence of nausea ([2]; intent-to-treat, entire 12 weeks, once daily 2 then 4 then 6 mg/day, placebo 20%) [%] | maximum plasma concentration (Cmax) [3, 5] | time to achieve the highest plasma concentration (Tmax) [3, 5] [h] | Cmax [3, 6] [ng/mL] | Tmax [3, 6] [h] | absorption from the gastrointestinal tract ([3]; dosed orally, conventional formulations (Bear et al.))
CNC1(C)C2CCC(C2)C1(C)C (racemic) [mecamylamine] | about 78.9 ng/mL | less than 25% | about 14 hours | no clinically significant changes | 9 |  |  |  |  | 
CNC1(C)C2CCC(C2)C1(C)C (stereo not shown) [mecamylamine hydrochloride, N-2,3,3-tetramethylbicyclo[2.2.1]heptan-2-amine hydrochloride] |  |  |  |  |  | about 7.89 ng/mL | 3.11 | 23.68 | 3.04 | nearly completely and rapidly absorbed
